These results are taken from patent US10092556B2, “Piperidine compound or salt thereof” (TAIHO PHARMACEUTICAL CO., LTD., priority 2012, dated 2018).

In series [1] the test system is human-derived stomach cancer cell line SNU-16. The series can be described thus: Inhibitory effect on cell proliferation (CellTiter-Glo, 72 hours). In kind it is cell-based. The conditions noted are these: SNU-16, 72 hours. The text has this:
Cells of the human-derived stomach cancer cell line SNU-16 were each routinely subcultured in the 10% fetal bovine serum (FBS)-containing RPMI-1640 medium and 10% FBS-containing Dulbecco's Modified Eagle Medium (DMEM) in order to maintain cell density of no more than 80%. In order to initiate a test for the inhibitory activity on cell proliferation, cells were each suspended in the aforementioned medium and seeded in each well of a 96-well flat bottom plate (black plate with a transparent bottom) at 2,500 or 3,000 cells per well. The cells were then cultured for one day at 37° C. in an incubator containing 5% carbon dioxide gas. The next day, the compound of the present invention and the subject compound were dissolved in DMSO, and using DMSO, the test compounds were serially diluted to a concentration of 200 times the final concentration. The solution of the test compounds in DMSO was diluted with the medium used for culturing, and then added to each well of the cell culture plate at a final DMSO concentration of 0.5%. The cells were cultured for 72 hours at 37° C. in an incubator containing 5% carbon dioxide gas. The cells were counted at the time of addition of the test compounds and 72 hours after culturing using the CellTiter-Glo Luminescent Cell Viability Assay kit (the product of Promega) based on the protocol recommended by Promega. The reagent included in the kit was added to each plate, followed by stirring, and the plates were left to stand at room temperature for 10 minutes. Upon completion of the reaction, the luminescence signal was measured using a microplate reader.
The cell proliferation inhibitory rate was calculated from the following formula and the concentration of the test compound at which the cell proliferation was inhibited by 50% (GI50 (nM)) was determined. Cell proliferation inhibitory rate (%)=(C−T)/(C−C0)×100 T: Luminescence signal in a well with the addition of the test compound C: Luminescence signal in a well without the addition of the test compound C0: Luminescence signal in a well measured before the addition of the compound
In general terms: ATP-based viability assays read luminescence as a measure of living cells.

The nature of series [2]: Evaluation of oral absorbability (plasma concentration after oral administration). In kind it is in vivo. The conditions noted are these: BALB/cA mouse, 0.5% HPMC, 0.5-6 hours. As to the method:
The test compound was suspended or dissolved in 0.5% HPMC and orally administered to a BALB/cA mouse. The blood was drawn from the retro-orbital venous plexus 0.5, 1, 2, 4, and 6 hours after oral administration to obtain plasma. The concentration of the compound in the plasma thus obtained was measured by LCMS and the oral absorbability was evaluated.

The subject of series [3] is human uterine cervical cancer cell line (Hela-Luc). The experiment in a line: Evaluation of the anti-tumor effect (2), Hela-Luc subcutaneous transplant in nude mouse. In kind it is in vivo. The settings on record: Day 11, paclitaxel 20 mg/kg iv day 1.
The test system is the same in series [4]. The experiment in a line: Evaluation of the anti-tumor effect (1), Hela-Luc subcutaneous transplant in nude mouse. The settings on record: Day 23; paclitaxel 30 mg/kg iv day 1; compound 60 mg/kg oral twice a day on day 2 and 3.
Description: The luciferase-introduced human uterine cervical cancer cell line (Hela-Luc) was subcutaneously transplanted into a nude mouse, and when the volume of the grafted tumor reached 100 to 200 mm^3, five mice in one group were grouped into the single drug administration group and combinational administration group by a randomized stratification method so as to achieve a uniform tumor volume in each group (day 1). […] In order to compare the anti-tumor effect brought about by drug administration, setting the tumor volume at the time of grouping at 1, the relative tumor volume (RTV) was determined in accordance with the following formula as a rate of tumor proliferation. RTV=(Tumor volume on the day of measurement of tumor volume)/(Tumor volume at the time of grouping)
Meanwhile, as the index of systemic toxicity caused by drug administration, the body weight change (BWC) was used. BWC (%)=([(Body weight of mouse on the day of body weight measurement)−(Body weight of mouse at the time of grouping)]/(Body weight of mouse at the time of grouping))×100
The mark [5] stands for this setting: Table 22, Compound 13 30 mg/kg oral twice a day on day 2 and 3.
Where [6] appears, read: Table 23, Compound 22 100 mg/kg single, 60 mg/kg in combination, oral twice a day on day 2 and 3.

As to `Cc1cc(Nc2nc(CC3(C(=O)O)CCN(C(=O)c4cccc(Cl)c4Cl)CC3)ccc2F)n[nH]1` [Example 1, 1-(2,3-dichlorobenzoyl)-4-((5-fluoro-6-(5-methyl-1H-pyrazol-3-ylamino)pyridin-2-yl)methyl)piperidine-4-carboxylic acid], the GI50 (in general, the concentration giving 50% growth inhibition) in series [1] was 120 nM. Further, the “oral absorbability (plasma concentration after oral administration)” value (“oral absorbability” for short) in series [2] is given as “favorable oral absorbability”.

Take `COc1ccc(CC2(C(=O)O)CCN(C(=O)c3cccc(Cl)c3F)CC2)nc1Nc1cc(C)[nH]n1` [Example 11, 1-(3-chloro-2-fluorobenzoyl)-4-((5-methoxy-6-(5-methyl-1H-pyrazol-3-ylamino)pyridin-2-yl)methyl)piperidine-4-carboxylic acid]: the “oral absorbability” value in series [2] is given as “favorable oral absorbability”.

Consider `Cc1cc(Nc2nc(CC3(C(=O)O)CCN(C(=O)c4cccc(Cl)c4F)CC3)ccc2Cl)n[nH]1` [Example 12, 1-(3-chloro-2-fluorobenzoyl)-4-((5-chloro-6-(5-methyl-1H-pyrazol-3-ylamino)pyridin-2-yl)methyl)piperidine-4-carboxylic acid], for which the “oral absorbability” value in series [2] was “favorable oral absorbability”.

Take `Cc1cc(Nc2nc(CC3(C(=O)O)CCN(C(=O)c4cccc(Cl)c4F)CC3)ccc2F)n[nH]1` [Example 13, 1-(3-chloro-2-fluorobenzoyl)-4-((5-fluoro-6-(5-methyl-1H-pyrazol-3-ylamino)pyridin-2-yl)methyl)piperidine-4-carboxylic acid]: the concentration for 50% growth inhibition (GI50) in series [1] came out at 60 nM. In series [2], the “oral absorbability” value is “favorable oral absorbability”. For the same compound, the “BWC (body weight change)” value in series [3] (setting [5]) is reported as 6.0%.

As to `Cc1cc(Nc2nc(CC3(c4noc(C)n4)CCN(C(=O)c4cccc(Cl)c4F)CC3)ccc2F)n[nH]1` [Example 22, (3-chloro-2-fluorophenyl)(4-((5-fluoro-6-(5-methyl-1H-pyrazol-3-ylamino)pyridin-2-yl)methyl)-4-(5-methyl-1,2,4-oxadiazol-3-yl)piperidin-1-yl)methanone], in series [1], it took 970 nM to inhibit growth by half (GI50). Further, the “oral absorbability” value in series [2] was “favorable oral absorbability”. Also, the “BWC (body weight change)” value in series [3] (setting [6]) stood at 6.9%.

Regarding `CC(=O)O[C@H]1C(=O)[C@@]2(C)[C@H]([C@H](OC(=O)c3ccccc3)[C@]3(O)C[C@H](OC(=O)[C@H](O)[C@@H](NC(=O)c4ccccc4)c4ccccc4)C(C)=C1C3(C)C)[C@]1(OC(C)=O)CO[C@@H]1C[C@@H]2O` [Paclitaxel, paclitaxel, reference compound], the “BWC (body weight change)” value amounted to 5.4% in series [3] (setting [5]), 7.8% in series [3] (setting [6]) and 3.0% in series [4].
